What all share (format): cell-based
One data set concerns B. subtilis. The data set can be described thus: Bioautograph test against B. subtilis. The note with it: at 1 microgram/milliliter. The protocol:
Each of the cis-and trans-isomers of tert-butyl 3-(2'-cyanovinyl)-7-phenoxyacetamido-3-cephem-4-carboxylate from Example 17 was in turn treated with 98-100 percent formic acid for 1 hour at room temperature to cleave the tert-butyl ester groups therefrom. After evaporation under reduced pressure of the excess formic acid, the acid residue was separated as an oil.

Data set [1] has as its system Pseudomonas aerogenosa X-528. The data set can be described thus: Gradient plate in vitro MIC, X528. The note with it: X528, G-; for MIC: Pseudomonas, read-out: minimum inhibitory concentration (MIC). From the text:
(§1) The data which follow are minimum inhibitory concentrations (MIC) in micrograms of compound per milliliter of agar medium in standard gradient plate in vitro tests against various Gram positive and Gram negative microorganisms. The data given here are for compounds satisfying the general formula [drawing 25] where R and X are as defined in the table which follows:
(§2) 1. The gradient plate procedure used is essentially that described by
(§3) Bryson and Szybalski in 1952 (Science, 116, pp. 45-46). The inoculum
(§4) 3. Gram negative microorganism identifications:
X-528 is Pseudomonas aerogenosa

Data set [2] deals with Salmonella heidellberg X-514. The data set can be described thus: Gradient plate in vitro MIC, X514. The note with it: X514, G-; for MIC: Salmonella, read-out: minimum inhibitory concentration (MIC).
From the text: as §1, §2, §3, §4
X-514 is Salmonella heidellberg

For data set [3], the system named is Klebsiella pneumonia X-26. The data set can be described thus: Gradient plate in vitro MIC, X26. Particulars: X26, G-; for MIC: Klebsiella pneumoniae, read-out: minimum inhibitory concentration (MIC).
From the text: as §1, §2, §3, §4
X-26 is Klebsiella pneumonia

The subject of the next data set is Serratia marcescens X-99. The data set can be described thus: Gradient plate in vitro MIC, X99. The note with it: X99, G-; for MIC: Serratia marcescens, read-out: minimum inhibitory concentration (MIC).
From the text: as §1, §2, §3, §4
X-99 is Serratia marcescens

Data set [4] relates to penicillin-resistant, Methicillin-resistant Staphylococcus aureus strain X-400. The data set can be described thus: Gradient plate in vitro MIC, strain X400. Particulars: X400, G+, penicillin- and Methicillin-resistant; for MIC: Staphylococcus aureus, read-out: minimum inhibitory concentration (MIC).
From the text: as §1, §2, §3
(§5) treatment method used for penicillin-resistant Staphlococci was reported
(§6) by Godzeski et al. in Antimicrobial Agents and Chemotherapy, May, 1961,
(§7) 2. Gram positive microorganism identifications are all
(§8) penicillin-resistant Staphylococcus aureus strains V-41, V-32, X-400,
(§9) V-84. X-400 is also Methicillin-resistant.

The subject of data set [5] is penicillin-resistant Staphylococcus aureus strain V-32. The data set can be described thus: Gradient plate in vitro MIC, strain V32. The note with it: V32, G+; for MIC: Staphylococcus aureus, read-out: minimum inhibitory concentration (MIC).
From the text: as §1, §2, §3, §5, §6, §7, §8, §9

Data set [6] deals with penicillin-resistant Staphylococcus aureus strain V-41. The data set can be described thus: Gradient plate in vitro MIC, strain V41. Particulars: V41, G+, read-out: minimum inhibitory concentration (MIC).
From the text: as §1, §2, §3, §5, §6, §7, §8, §9

Another data set has as its system Schigella sp. N-9. Description: Gradient plate in vitro MIC, N9. Particulars: N9, G-; for MIC: read-out: minimum inhibitory concentration (MIC).
From the text: as §1, §2, §3

Data set [7] concerns penicillin-resistant Staphylococcus aureus strain V-84. Description: Gradient plate in vitro MIC, strain V84. The note with it: V84, G+; for MIC: Staphylococcus aureus, read-out: minimum inhibitory concentration (MIC).
From the text: as §1, §2, §3, §5, §6, §7, §8, §9

For data set [8], the system named is Enterobacter aerogenes X-68. The data set can be described thus: Gradient plate in vitro MIC, X68. The note with it: X68, G-; for MIC: Klebsiella aerogenes, read-out: minimum inhibitory concentration (MIC).
From the text: as §1, §2, §3, §4
X-68 is Enterobacter aerogenes

The next data set has as its system Escherichia coli N-10. The data set can be described thus: Gradient plate in vitro MIC, N10. Particulars: N10, G-; for MIC: Escherichia coli, read-out: minimum inhibitory concentration (MIC).
From the text: as §1, §2, §3, §4
N-10 is Escherichia coli

The subject of data set [9] is Gram positive and Gram negative microorganisms. The data set can be described thus: Standard gradient plate assay, Gram positive and Gram negative microorganisms.
From the text: as §1, §2, §3

Data set [10] has the same test system. Description: Disc plate assay. Particulars: variety of Gram positive and Gram negative microorganisms. The method, then:
(§10) A solution of 25 mg. of tert-butyl 7-(2'-tert-butoxycarbonylamino-2'-phenylacetamido)-3-(2'-tert-butoxycarbonylvinyl)-3-cephem-4-carboxylate, prepared as described in Example 19, in 5 cc of 98-100 percent formic acid was allowed to stand for 1 hour at room temperature. After evaporating under reduced pressure the formic acid, the acid residue was taken up in trifluoroacetic acid and the NMR spectrum was taken.

Another data set deals with Sarcina lutea. The data set can be described thus: Bioautograph against Sarcina lutea. The protocol:
as §10

≈ marks a conversion by molar mass, not a printed value. A value given as a limit tells only on which side of the number the result lay.

Consider `N#C/C=C\C1=C(C(=O)O)N2C(=O)C(NC(=O)COc3ccccc3)C2SC1` (single isomer, unassigned; isomer 3) [Example 20 cis-isomer, 3-(2-cyanovinyl)-7-phenoxyacetamido-3-cephem-4-carboxylic acid], for which, in the data set on B. subtilis, the “antibiotic activity zone on bioautograph” value is on record as “large antibiotic activity zone”.
Turning to `CCOC(=O)C=CC1=C(C(=O)O)N2C(=O)C(NC(=O)C(C(=O)O)c3ccccc3)[C@H]2SC1` (stereo partly shown) [7-(2'-carboxy-2'-phenylacetamido)-3-(2'-ethoxycarbonylvinyl)-3-cephem-4-carboxylic acid], the MIC in data set [1] is 42.2 µg/mL (≈ 91.6 µM); in data set [2] it was 0.8 µg/mL (≈ 1.74 µM); in data set [3], 2.5 µg/mL (≈ 5.43 µM); in the data set with Serratia marcescens X-99, 0.6 µg/mL (≈ 1.3 µM); in data set [4], above 20 µg/mL; in data set [5], 10.3 µg/mL (≈ 22.4 µM). In addition, the MIC in data set [6] is 7.9 µg/mL (≈ 17.2 µM); with Schigella sp. N-9, 1 µg/mL (≈ 2.17 µM); in data set [7], 11.4 µg/mL (≈ 24.8 µM); in data set [8], 3 µg/mL (≈ 6.52 µM); with Escherichia coli N-10, 6.3 µg/mL (≈ 13.7 µM).
For the molecule `N#C/C=C/C1=C(C(=O)O)N2C(=O)C(NC(=O)COc3ccccc3)C2SC1` (single isomer, unassigned; isomer 3) [Example 20 trans-isomer, 3-(2-cyanovinyl)-7-phenoxyacetamido-3-cephem-4-carboxylic acid], the “antibiotic activity zone on bioautograph” value with B. subtilis is on record as “large antibiotic activity zone”. Further, the “gradient plate MIC, trans-isomer compared with cis-isomer” value in data set [9] (against both Gram positive and Gram negative microorganisms) is on record as “more active than the cis-isomer”.
As for “3-(2-cyanovinyl)-7-phenoxyacetamido-3-cephem-4-carboxylic acid”, the “minimum inhibitory concentration (MIC)” value in [1] was 162.0 micrograms of compound per mil; in data set [2], 12.1 micrograms of compound per mil; in data set [3], 110.0 micrograms of compound per mil; in the data set on Serratia marcescens X-99, 21.0 micrograms of compound per mil; in data set [4] it was > 20 micrograms of compound per mil; in data set [5], 6.1 micrograms of compound per mil. Further, the “minimum inhibitory concentration (MIC)” value with Schigella sp. N-9 is reported as 40.4 micrograms of compound per mil; in data set [7], 3.8 micrograms of compound per mil; in data set [8], 38.2 micrograms of compound per mil; in the data set on Escherichia coli N-10 it was 102.0 micrograms of compound per mil.
With `CCOC(=O)C=CC1=C(C(=O)O)N2C(=O)C(NC(=O)Cc3cccs3)C2SC1` (stereo not shown), the MIC is above 50 µg/mL in [1]; 4.7 µg/mL (≈ 11.1 µM) in data set [2]; 5.3 µg/mL (≈ 12.5 µM) in data set [3]; above 50 µg/mL in the data set on Serratia marcescens X-99; above 20 µg/mL in data set [4]; 7.5 µg/mL (≈ 17.8 µM) in data set [5]. Further, the MIC was found to be 6.2 µg/mL (≈ 14.7 µM) in data set [6]; 2.6 µg/mL (≈ 6.15 µM) with Schigella sp. N-9; 7.1 µg/mL (≈ 16.8 µM) in data set [7]; 3.3 µg/mL (≈ 7.81 µM) in data set [8]; 3.8 µg/mL (≈ 8.99 µM) with Escherichia coli N-10.
Take `CCOC(=O)C=CC1=C(C(=O)O)N2C(=O)C(NC(=O)COc3ccccc3)[C@H]2SC1` (stereo partly shown) [Example 3, 3-(2'-ethoxycarbonylvinyl)-7-phenoxyacetamido-3-cephem-4-carboxylic acid]: the “activity as an antibiotic in gradient plate tests” value in [9] (variety of both Gram positive and Gram negative microorganisms) was “showed activity as an antibiotic”.
For the molecule `O=C(O)C=CC1=C(C(=O)O)N2C(=O)C(NC(=O)C(C(=O)O)c3ccccc3)[C@H]2SC1` (stereo partly shown) [7-(2'-carboxy-2'-phenylacetamido)-3-(2'-carboxyvinyl)-3-cephem-4-carboxylic acid], the MIC in data set [1] is 29.5 µg/mL (≈ 68.2 µM); in data set [2] it was 1 µg/mL (≈ 2.31 µM); in [3] it was 35 µg/mL (≈ 80.9 µM); in the data set with Serratia marcescens X-99, below 8 µg/mL; in [4], above 20 µg/mL; in data set [5] it was above 20 µg/mL. Further, the MIC in [6] is above 20 µg/mL; in the data set on Schigella sp. N-9 it was 7 µg/mL (≈ 16.2 µM); in data set [7], above 20 µg/mL; in data set [8] it was 2 µg/mL (≈ 4.63 µM); with Escherichia coli N-10, 36.5 µg/mL (≈ 84.4 µM).
For `O=C(O)C=CC1=C(C(=O)O)N2C(=O)C(NC(=O)[C@H](O)c3ccccc3)C2SC1` (stereo partly shown), the MIC is above 50 µg/mL in data set [1]; 0.6 µg/mL (≈ 1.48 µM) in [2]; 5 µg/mL (≈ 12.4 µM) in data set [3]; above 50 µg/mL in the data set with Serratia marcescens X-99; above 20 µg/mL in data set [4]; above 20 µg/mL in data set [5]. In addition, the MIC in data set [6] is above 20 µg/mL; in the data set on Schigella sp. N-9, 3.3 µg/mL (≈ 8.16 µM); in data set [7], 11.2 µg/mL (≈ 27.7 µM); in data set [8], 1 µg/mL (≈ 2.47 µM); with Escherichia coli N-10, 5.7 µg/mL (≈ 14.1 µM).
Take `NC(C(=O)NC1C(=O)N2C(C(=O)O)=C(C=CC(=O)O)CS[C@H]12)c1ccccc1` (stereo partly shown) [Example 23, 7-(2'-amino-2'-phenylacetamido)-3-(2'-carboxyvinyl)-3-cephem-4-carboxylic acid]: the “antibiotic activity in disc plate assay” value in data set [10] is on record as “antibiotic activity”. The “antibiotically active zone on bioautograph” value in the data set with Sarcina lutea (acid residue after formic acid/trifluoroacetic acid) is listed as “only one antibiotically active zone”. Besides, the “polarity of the active zone on the bioautograph” value with Sarcina lutea (compared with cephalexin) is listed as “more polar than cephalexin”.

For the origin of these results see patent US4065620A, “3-(Substituted) vinyl cephalosporins” (Eli Lilly and Company, priority 1971, dated 1977).
